How the values were obtained:
[1] = tested on: ATXN3Q81.Luc fusion protein; experiment: Confirmation dose-response, ATXN3 levels by immunoblotting; assay type: cell-based, human; details: 293.ATXN3Q81Luc cells
Source text: Full-length ATXN3 (Accession number ABS29269) carrying either a normal or an expanded polyQ tract (Q26 or Q81) was subcloned in the vector pcDNA3.1 FLAG.firefly Luciferase. The mammalian expression plasmids pcDNA.FLAG.ATXN3Q26.Luc and pcDNA.FLAG.ATXN3Q81.Luc were confirmed by sequencing and shown to express N-terminal FLAG-tagged ATXN3Q26 or ATXN3Q81 fused with firefly Luciferase (Luc), respectively. These neomycin-resistant plasmids were transfected into HEK293 cells using Lipofectamine LTX (Invitrogen) during four hours, after which medium was replaced by growth medium (DMEM/10% fetal bovine serum (FBS)/1% penicillin/streptomycin (PS)). […] After one month of passage in selection medium, stably transfected clones for each cell line (293.ATXN3Q26Luc and 293.ATXN3Q81Luc) were pooled and frozen in liquid nitrogen. Stably transfected cell lines were maintained in selection medium except during treatment with specific compounds that were diluted in growth medium.
Protein lysates from cell cultures, mouse brain slices or mouse brains were obtained by lysis in RIPA buffer containing protease inhibitors (Complete, Roche Diagnostics), followed by sonication and centrifugation. The supernatants (soluble protein fractions) were collected, total protein concentration was determined using the BCA method (Pierce) and then stored at −80° C. Total proteins (50 μg from cell and slice cultures or 75 μg from brain regions of mice) were resolved in 10% SDS-PAGE gels, and corresponding PVDF membranes were incubated overnight at 4° C. with primary antibodies: mouse anti-ATXN3 (1H9) (1:2000; MAB5360, Millipore), goat anti-Luciferase (1:500; G7451, Promega), mouse anti-FLAG (M5) (1:500; IB13091, Sigma), rabbit anti-LC3 (1:500; PM036, MBL International Corporation), mouse anti-HSP90β (1:1000; ADI-SPA842, Enzo Life Sciences), rabbit anti-HSP90α (1:1000; ab2928, Abcam), mouse anti-HSP70 (1:500; SPA810, Enzo Life Sciences), rabbit anti-HSP40 (1:1000; #4868, Cell Signaling), rabbit anti-HSP25 (1:1000; ADI-SPA801, Enzo Life Sciences), rabbit anti-HSF1 (1:1000, ADI-SPA-901, Enzo Life Sciences), rabbit anti-ubiquitin (1:1000, Z 0458, Dako), rabbit anti-RAD23A (1:5000; TA307264, Origene), rabbit anti-RAD23B (1:2000; A302-306A, Bethyl Labs), rabbit anti-α-Tubulin (11H10) (1:10000; #2125, Cell Signaling), and mouse anti-GAPDH (1:1000; MAB374, Millipore). Pellets corresponding to insoluble protein fractions were resuspended in 100 μL of Laemmli buffer 2× and boiled for 10 min. Insoluble proteins were then quantified, and 100 μg were loaded in a filter trap assay apparatus and transferred to a nitrocellulose membrane (0.45 μm pore) that was incubated overnight with rabbit anti-MJD antibody (1:5000) at 4° C. Bound primary antibodies were visualized by incubation with a peroxidase-conjugated anti-mouse or anti-rabbit secondary antibody (1:10000; Jackson Immuno Research Laboratories) followed by treatment with the ECL-plus reagent (Western Lighting, PerkinElmer) and exposure to autoradiography films. Band intensity was quantified by densitometry using ImageJ.

human mutant ATXN3Q84 = assay type: cell-based; details: sagittal brain slices treated for 48 hours, cerebellum and brainstem
Method: (§1) Nine slices per brain were used in each set of cultures. […] After 48 hours of incubation at 37° C./5% CO2, brain slices were assessed for ATXN3 levels by immunoblotting or immunofluorescence and for cell viability. For immunoblotting, each slice was macrodissected into separate cerebellum and brainstem that were immediately frozen at −80° C. in 80 μL and 150 μL of cold RIPA buffer containing protease inhibitors (Complete, Roche Diagnostics), respectively. Cell viability was assessed on treated slices by incubation in propidium iodide (PI) 1 μg/mL in culture medium for 1 hour. Slices were then mounted in PROLONG Gold Antifade Reagent (Invitrogen) and imaged using a FV500 Olympus confocal microscope.
Protein lysates from cell cultures, mouse brain slices or mouse brains were obtained by lysis in RIPA buffer containing protease inhibitors (Complete, Roche Diagnostics), followed by sonication and centrifugation. The supernatants (soluble protein fractions) were collected, total protein concentration was determined using the BCA method (Pierce) and then stored at −80° C. […] Pellets corresponding to insoluble protein fractions were resuspended in 100 μL of Laemmli buffer 2× and boiled for 10 min. Insoluble proteins were then quantified, and 100 μg were loaded in a filter trap assay apparatus and transferred to a nitrocellulose membrane (0.45 μm pore) that was incubated overnight with rabbit anti-MJD antibody (1:5000) at 4° C. Bound primary antibodies were visualized by incubation with a peroxidase-conjugated anti-mouse or anti-rabbit secondary antibody (1:10000; Jackson Immuno Research Laboratories) followed by treatment with the ECL-plus reagent (Western Lighting, PerkinElmer) and exposure to autoradiography films. Band intensity was quantified by densitometry using ImageJ.
To assess the efficacy of the five compounds to reduce ATXN3 levels in the mammalian brain, secondary screens in organotypic brain slice cultures derived from hemizygous YACMJD84.2 (Q84) transgenic mice were performed.

mouse Atxn3 = experiment: Organotypic brain slice cultures from YACMJD84.2 (Q84) mice, immunoblotting; assay type: cell-based; details: sagittal brain slices treated for 48 hours, cerebellum and brainstem
Method: as §1
Protein lysates from cell cultures, mouse brain slices or mouse brains were obtained by lysis in RIPA buffer containing protease inhibitors (Complete, Roche Diagnostics), followed by sonication and centrifugation. The supernatants (soluble protein fractions) were collected, total protein concentration was determined using the BCA method (Pierce) and then stored at −80° C. […] Insoluble proteins were then quantified, and 100 μg were loaded in a filter trap assay apparatus and transferred to a nitrocellulose membrane (0.45 μm pore) that was incubated overnight with rabbit anti-MJD antibody (1:5000) at 4° C. […] Band intensity was quantified by densitometry using ImageJ. […]

| Compound | levels of ATXN3Q81.Luc fusion protein [1] | levels of human mutant ATXN3Q84 (human mutant ATXN3Q84) | levels of mouse Atxn3 (mouse Atxn3) |
| --- | --- | --- | --- |
| Cc1c(C(=O)NN2CCCCC2)nn(-c2ccc(Cl)cc2Cl)c1-c1ccc(I)cc1 [AM251] | confirmed to decrease levels of ATXN3Q81.Luc fusion protein | – | – |
| Clc1ccccc1C(c1ccccc1)(c1ccccc1)n1ccnc1 [clotrimazole] | confirmed to decrease levels of ATXN3Q81.Luc fusion protein | did not alter ATXN3 levels | – |
| CC#C[C@]1(O)CC[C@H]2[C@@H]3CCC4=CC(=O)CCC4=C3[C@@H](c3ccc(N(C)C)cc3)C[C@@]21C [mifepristone] | confirmed to decrease levels of ATXN3Q81.Luc fusion protein | did not alter ATXN3 levels | – |
| CC[C@@H](C(=O)[C@@H](C)[C@@H](O)[C@H](C)[C@@H]1O[C@@H]([C@@H](CC)C(=O)O)CC[C@@H]1C)[C@H]1O[C@]2(C=C[C@@H](O)[C@]3(CC[C@@](C)([C@H]4CC[C@](O)(CC)[C@H](C)O4)O3)O2)[C@H](C)C[C@@H]1C [salinomycin sodium] | confirmed to decrease levels of ATXN3Q81.Luc fusion protein | reduced levels | reduced levels |

Reference: patent publication US20190070174A1, “METHODS OF TREATING NEURODEGENERATIVE DISEASES” (priority 2016, published 2019)
